Usually MIC stands for the smallest concentration in the dilution series that meets the test's criterion for growth inhibition. The term IC50 denotes the concentration that inhibits the measured activity by half.

Here are results for 22 molecules from ChEMBL document CHEMBL1131130, “Structure-based design of beta-lactamase inhibitors. 1. Synthesis and evaluation of bridged monobactams” (J Med Chem, 1998).

For one experiment, the system named is Escherichia coli. The experiment can be described thus: In vitro inhibition of Escherichia coli TEM-3 growth. Type of experiment: functional.
The test system of a further experiment is Pseudomonas aeruginosa. The experiment can be described thus: In vitro inhibition of Pseudomonas aeruginosa 18SH growth. Type of experiment: functional.
The subject of the next experiment is Citrobacter freundii. The experiment can be described thus: In vitro inhibition of Citrobacter freundii 1982 growth. It counts as functional.
Another experiment has as its target Beta-lactamase (Pseudomonas aeruginosa (strain ATCC 15692 / PAO1 / 1C / PRS 101 / LMG12228), UniProt P24735). Briefly: Inhibition of Pseudomonas aeruginosa 18SH Beta-lactamase.
Experiment [1] is described as follows: Relative permeability as IC50 for beta lactamase inhibition in intact Citrobacter freundii growing cells to the observed IC50 in the same cells treated with 0.7% final concentration of octyl-poly(oxyethylene);NA= Not active. Type of experiment: functional, cell-based.
The nature of experiment [2]: Relative permeability as IC50 for beta lactamase inhibition in intact Pseudomonas aeruginosa growing cells to the observed IC50 in the same cells treated with 0.7% final concentration of octyl-poly(oxyethylene). It counts as functional.
Experiment [3] addresses Beta-lactamase (Pseudomonas aeruginosa (strain ATCC 15692 / PAO1 / 1C / PRS 101 / LMG12228)) (UniProt P24735).
Description: Deacylation of 18SH Beta-lactamase of Pseudomonas aeruginosa
The target is the same in experiment [4]. This is another data set of the same source.
Description: Acylation of Pseudomonas aeruginosa 18SH Beta-lactamase
Experiment [5] shares this target. This is another data set of the same source.
Description: Affinity for stable acyl 18SH Beta-lactamase complex of Pseudomonas aeruginosa
A short description of experiment [6]: Relative permeability as IC50 for beta lactamase inhibition in intact Citrobacter freundii growing cells to the observed IC50 in the same cells treated with 0.7% final concentration of octyl-poly(oxyethylene). It counts as functional.
For experiment [7], the target named is Beta-lactamase (Pseudomonas aeruginosa (strain ATCC 15692 / PAO1 / 1C / PRS 101 / LMG12228)) (UniProt P24735). The source holds these as a separate data set.
Beta-lactamase (Pseudomonas aeruginosa (strain ATCC 15692 / PAO1 / 1C / PRS 101 / LMG12228)), sequence (P24735 27-397 limits assumed): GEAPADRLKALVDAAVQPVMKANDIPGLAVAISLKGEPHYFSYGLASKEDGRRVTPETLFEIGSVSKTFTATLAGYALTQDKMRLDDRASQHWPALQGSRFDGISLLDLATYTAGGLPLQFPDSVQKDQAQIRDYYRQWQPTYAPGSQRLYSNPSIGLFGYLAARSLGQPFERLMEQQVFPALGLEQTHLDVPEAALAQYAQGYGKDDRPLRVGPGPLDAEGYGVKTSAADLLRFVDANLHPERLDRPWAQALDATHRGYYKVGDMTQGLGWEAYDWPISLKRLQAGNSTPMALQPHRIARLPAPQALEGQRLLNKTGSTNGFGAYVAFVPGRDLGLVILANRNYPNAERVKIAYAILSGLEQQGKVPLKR
Description: Time taken for deacylation of Pseudomonas aeruginosa 18SH Beta-lactamase
Experiment [8] can be described thus: Relative permeability as IC50 for beta lactamase inhibition in intact Pseudomonas aeruginosa growing cells to the observed IC50 in the same cells treated with 0.7% final concentration of octyl-poly(oxyethylene);NA= Not active. Type of experiment: functional, cell-based.
The next experiment concerns the target Beta-lactamase TEM (Escherichia coli, UniProt P62593). The experiment can be described thus: Inhibitory activity against Escherichia coli TEM-3 Beta-lactamase;NA=not active.

Converted amounts (≈) assume the structure as drawn. The source made the active and inactive calls.

Beta-lactamase, sequence (P24735 whole entry): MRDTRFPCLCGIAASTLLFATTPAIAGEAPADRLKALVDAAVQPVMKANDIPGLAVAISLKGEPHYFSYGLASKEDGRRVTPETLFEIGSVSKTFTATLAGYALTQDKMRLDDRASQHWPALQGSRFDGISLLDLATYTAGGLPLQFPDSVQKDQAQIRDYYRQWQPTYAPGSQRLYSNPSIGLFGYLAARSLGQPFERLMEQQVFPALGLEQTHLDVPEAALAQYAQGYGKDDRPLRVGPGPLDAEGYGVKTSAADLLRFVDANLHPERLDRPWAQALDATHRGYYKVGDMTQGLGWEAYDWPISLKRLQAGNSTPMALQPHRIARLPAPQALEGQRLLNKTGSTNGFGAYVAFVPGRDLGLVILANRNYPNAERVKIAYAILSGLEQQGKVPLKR
Beta-lactamase TEM, sequence (P62593 24-286 limits assumed): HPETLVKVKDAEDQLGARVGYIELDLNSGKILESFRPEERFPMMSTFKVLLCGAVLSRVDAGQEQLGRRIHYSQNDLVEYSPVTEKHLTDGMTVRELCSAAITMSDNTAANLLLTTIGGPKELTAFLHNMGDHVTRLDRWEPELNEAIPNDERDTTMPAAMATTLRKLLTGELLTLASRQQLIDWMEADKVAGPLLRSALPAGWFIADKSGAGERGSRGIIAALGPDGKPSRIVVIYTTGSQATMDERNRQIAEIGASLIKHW

On to `NC(=O)c1ccc(NC(=O)N2CC[C@@H]3[C@H]2C(=O)N3S(=O)(=O)[O-])cc1.[Na+]`, for which the MIC turned out to be 16 µg/mL in the experiment with Escherichia coli, 4 µg/mL against Pseudomonas aeruginosa and 0.5 µg/mL with Citrobacter freundii. On Beta-lactamase, the IC50 came out at 217 nM.
As for `O=C1NCC[C@@H]1NC(=O)N1CC[C@@H]2[C@H]1C(=O)N2S(=O)(=O)[O-].[Na+]`, the MIC stood at 16 µg/mL against Escherichia coli, 4 µg/mL in the experiment with Pseudomonas aeruginosa and 1 µg/mL in the experiment on Citrobacter freundii. At Beta-lactamase, the IC50 stood at 2250 nM.
In the experiment with Escherichia coli, `CC(C)(C)OC(=O)N1CC[C@@H]2[C@H]1C(=O)N2S(=O)(=O)[O-].[Na+]` displayed an MIC of 16 µg/mL. The Ratio result in experiment [1] was “inactive”. Further, in experiment [2], the Ratio is recorded as 24. Besides, the IC50 on Beta-lactamase is 1500 nM. The molecule further had a k off in experiment [3] of 3.7e-05 s⁻¹. This molecule also returned a Kon in [4] of 11 s⁻¹. The molecule also came in with a Ks in experiment [5] of 127 µM.
In turn, `Cn1nnnc1S[C@@H]1CN(C(=O)OCc2ccccc2)[C@@H]2C(=O)N(S(=O)(=O)[O-])[C@@H]21.[Na+]` yielded an MIC in the experiment on Escherichia coli of 16 µg/mL. Further, the Ratio in experiment [6] is reported as 10; in [2] it was 68. The molecule also gave an IC50 against Beta-lactamase of 613 nM. For the same molecule, the k off in experiment [3] was found to be 4.1e-05 s⁻¹. In experiment [4], this molecule showed a Kon of 3.8 s⁻¹. In experiment [5], the Ks came to 15 µM.
With `O=C(/C=C/c1c[nH]cn1)N1CC[C@@H]2[C@H]1C(=O)N2S(=O)(=O)[O-].[Na+]`, the minimal inhibitory concentration (MIC) with Escherichia coli was found to be 16 µg/mL; against Pseudomonas aeruginosa, 8 µg/mL; against Citrobacter freundii, 0.5 µg/mL. Moreover, the IC50 against Beta-lactamase stood at 110 nM.
Take `O=C(OCc1ccccc1)N1C[C@H](F)[C@@H]2[C@H]1C(=O)N2S(=O)(=O)[O-].[Na+]`: the MIC against Escherichia coli is 16 µg/mL; in the experiment with Pseudomonas aeruginosa, above 16 µg/mL; against Citrobacter freundii, above 16 µg/mL. 380 nM corresponded to half-maximal inhibition on Beta-lactamase (IC50).
With `[NH-]C(=O)c1ccc[n+](CC(=O)N2CC[C@@H]3[C@H]2C(=O)N3S(=O)(=O)[O-])c1.[Na+]`, the lowest concentration to inhibit growth against Escherichia coli (MIC) was 8 µg/mL. Further, the Ratio was 0.8 in experiment [6] and 1.2 in [2]. For the same molecule, the IC50 on Beta-lactamase came out at 27 nM. Further, the k off in experiment [7] was 9e-06 s⁻¹. In addition, in experiment [4], the Kon amounted to 0.9 s⁻¹. The same molecule registered a Ks in [5] of 65 µM.
With `Cn1cnnc1SCC(=O)N1CC[C@@H]2[C@H]1C(=O)N2S(=O)(=O)[O-].[Na+]`, the MIC in the experiment on Escherichia coli was found to be 8 µg/mL; against Pseudomonas aeruginosa, 128 µg/mL; against Citrobacter freundii, 1 µg/mL. Moreover, the IC50 against Beta-lactamase worked out at 853 nM.
Molecule `O=C(NC1CCNCC1)N1CC[C@@H]2[C@H]1C(=O)N2S(=O)(=O)[O-].[Na+]` registered an MIC with Escherichia coli of 16 µg/mL. The Ratio in [6] was 1.7; in experiment [2] it was 1. The molecule further came in with an IC50 against Beta-lactamase of 3900 nM. This molecule also came in with a k off in experiment [3] of 0.0012 s⁻¹. The same molecule had a Kon in [4] of 1.5 s⁻¹. In [5], this molecule returned a Ks of 1480 µM.
The molecule `CC(C)(C)OC(=O)N1CCC[C@@H]2[C@H]1C(=O)N2S(=O)(=O)[O-].[Na+]` returned an MIC against Escherichia coli of 16 µg/mL. In addition, the Ratio entry in [1] and in experiment [8] was “inactive” in each case. The same molecule yielded an IC50 on Beta-lactamase of 145000 nM. The molecule further came in with a k off in [3] of 0.0007 s⁻¹. Also, the Kon in experiment [4] stood at 0.5 s⁻¹. The same molecule showed a Ks in experiment [5] of 3500 µM.
Turning to `O=C(Nc1ccc(O)cc1)N1CC[C@@H]2[C@H]1C(=O)N2S(=O)(=O)[O-].[Na+]`, inhibition of growth in the experiment on Escherichia coli (MIC) required 8 µg/mL. Further, the Ratio stood at 0.6 in experiment [6] and 38 in experiment [2]. Besides, the IC50 on Beta-lactamase was 155 nM. Further, the k off in experiment [3] worked out at 5.3e-05 s⁻¹. For the same molecule, the Kon in experiment [4] was found to be 0.4 s⁻¹. This molecule also gave a Ks in [5] of 50 µM.
As to `O=C(O)[C@H]1/C(=C/CO)O[C@@H]2CC(=O)N21` [CLAVULANIC ACID], the MIC was 0.25 µg/mL (≈ 1.26 µM) with Escherichia coli, above 32 µg/mL in the experiment on Pseudomonas aeruginosa and 8 µg/mL (≈ 40.2 µM) with Citrobacter freundii.
For the molecule `Cn1ccnc1SCC(=O)N1CC[C@@H]2[C@H]1C(=O)N2S(=O)(=O)[O-].[Na+]`, the values for the MIC against Escherichia coli, in the experiment on Pseudomonas aeruginosa and in the experiment on Citrobacter freundii were 16 µg/mL, 8 µg/mL and 1 µg/mL, respectively. This molecule came in with an IC50 on Beta-lactamase of 612 nM.
As for `O=C(Nc1ccccc1)N1CC[C@@H]2[C@H]1C(=O)N2S(=O)(=O)[O-].[Na+]`, at Beta-lactamase TEM, the IC50 is 420 nM (not active). Besides, the MIC against Escherichia coli was 4 µg/mL; in the experiment on Pseudomonas aeruginosa, 8 µg/mL; against Citrobacter freundii, 2 µg/mL.
As for `NC(=O)Nc1ccc(NC(=O)N2CC[C@@H]3[C@H]2C(=O)N3S(=O)(=O)[O-])cc1.[Na+]`, the results for the MIC against Escherichia coli, with Pseudomonas aeruginosa and in the experiment on Citrobacter freundii were 16 µg/mL, 4 µg/mL and 0.25 µg/mL, respectively. The same molecule showed an IC50 against Beta-lactamase of 48 nM.
Taken in the same sequence, the figures for `O=C(CNc1ccc(O)cc1)N1CC[C@@H]2[C@H]1C(=O)N2S(=O)(=O)[O-].[Na+]` were 8 µg/mL, 128 µg/mL, 8 µg/mL and 25 nM.
Taken in the same sequence, the figures for `O=C(OCc1ccccc1)N1CC[C@@H]2[C@H]1C(=O)N2S(=O)(=O)[O-].[Na+]` were 16 µg/mL, 128 µg/mL, 8 µg/mL and 200 nM.
Taken in the same sequence, the figures for `NC(=O)/C=C1\CN(C(=O)OCc2ccccc2)[C@@H]2C(=O)N(S(=O)(=O)[O-])[C@H]12.[Na+]` were 16 µg/mL, above 16 µg/mL, above 16 µg/mL and 1040 nM.
`NC(=O)c1cccc(NC(=O)N2CC[C@@H]3[C@H]2C(=O)N3S(=O)(=O)[O-])c1.[Na+]`: the MIC worked out at 16 µg/mL in the experiment on Escherichia coli, 16 µg/mL with Pseudomonas aeruginosa and 1 µg/mL in the experiment with Citrobacter freundii. For the same molecule, at Beta-lactamase, the IC50 turned out to be 24 nM.
In the case of `Cc1nn(C)c(SCC(=O)N2CC[C@@H]3[C@H]2C(=O)N3S(=O)(=O)[O-])nc1=O.[Na+]`, the MIC against Escherichia coli stood at 16 µg/mL; in the experiment on Pseudomonas aeruginosa it was 16 µg/mL; with Citrobacter freundii it was 0.25 µg/mL. Also, the IC50 at Beta-lactamase was found to be 55 nM.
As to `Cn1nnnc1SCC(=O)N1CC[C@@H]2[C@H]1C(=O)N2S(=O)(=O)[O-].[Na+]`, the MIC in the experiment with Escherichia coli is 8 µg/mL; in the experiment with Pseudomonas aeruginosa, 8 µg/mL; against Citrobacter freundii, 0.5 µg/mL. The molecule further gave an IC50 against Beta-lactamase of 200 nM.
`NC(C(=O)N1CC[C@@H]2[C@H]1C(=O)N2S(=O)(=O)[O-])c1ccc(O)cc1.[Na+]` (stereo partly drawn) came in with an MIC against Escherichia coli of 8 µg/mL. The Ratio in experiment [6] was 8.7; in [2], 8.2. Besides, at Beta-lactamase, the IC50 was found to be 90 nM. Besides, in [3], the k off was below 1e-05 s⁻¹. In experiment [4], this molecule showed a Kon of 2.7 s⁻¹. This molecule showed a Ks in experiment [5] of 6.9 µM.
